# Assay results reported in US8927563B2, “Kinase inhibitor” (Respivert Limited, priority 2013, dated 2015).
# Like-named read-outs stand apart in the source and are kept apart here.
# Legend:
# [1] = system: non-mutant kinases; assay: KinomeScan selectivity scores; format: binding; conditions: for number of individual kinase hits, S(1): % Ctrl <1; for number of individual kinase hits, S(10): % Ctrl <10; for number of individual kinase hits, S(35): % Ctrl <35
# Procedure: Kinase enzyme binding activities of compounds disclosed herein may be determined using a proprietary assay which measures active site-directed competition binding to an immobilized ligand (Fabian, M. A. et al., Nature Biotechnol., 2005, 23:329-336). These assays may be conducted by DiscoverX (formerly Ambit; San Diego, Calif.). The percentage inhibition produced by incubation with a test compound may be calculated relative to the non-inhibited control.
# [2] = system: d-U937 cells; assay: Accumulation of β catenin in d-U937 cells; format: cell-based, human; conditions: 1 μg/mL; normalised to Reference compound at 1 μg/mL
# Procedure: U937 cells, a human monocytic cell line, are differentiated into macrophage-type cells by incubation with PMA (100 ng/mL) for between 48 to 72 hr. The cells are then incubated with either final concentrations of test compound or vehicle for 18 hr. The induction of β-catenin by the test compound is stopped by replacing the media with 4% formaldehyde solution. Endogenous […] is neutralised by incubating with quenching buffer (100 μL, 0.1% sodium azide, 1% H2O2 in PBS with 0.05% Tween-20) for 20 min. The cells are washed with washing buffer (200 μL; PBS containing 0.05% Tween-20) and incubated with blocking solution (200 μL; 5% milk in PBS) for 1 hr, re-washed with washing buffer (200 μL) and then incubated overnight with anti-β-catenin antibody solution (50 μL) in 1% BSA/PBS (BD, Oxford, UK).
# After washing with washing buffer (3×200 μL; PBS containing 0.05% Tween-20), cells are incubated with a HRP-conjugated secondary antibody solution (100 μL) in 1% BSA/PBS (Dako, Cambridge, UK) and the resultant signal is determined colourimetrically (OD: 450 nm with a reference wavelength of 655 nm) using TMB substrate (50 μL; R&D Systems, Abingdon, UK). This reaction is stopped by addition of 1N H2SO4 solution (50 μL). Cells are then washed with washing buffer and 2% crystal violet solution (50 μL) is applied for 30 min. After washing with washing buffer (3×200 μL), 1% SDS (100 μL) is added to each well and the plates are shaken lightly for 1 hr prior to measuring the absorbance at 595 nm (Varioskan® Flash, Thermo-Fisher Scientific).
# The measured OD450-655 readings are corrected for cell number by dividing the OD450-655 by the OD595 readings.
# [3] = target: CYP3A4 (Homo sapiens (Human), UniProt P08684); assay: CYP3A4 inhibition with and without preincubation; format: in vitro ADME; conditions: for inhibition at 15 µM: human, read-out: 15 μM % Inh
# Sequence of CYP3A4 (P08684 whole entry): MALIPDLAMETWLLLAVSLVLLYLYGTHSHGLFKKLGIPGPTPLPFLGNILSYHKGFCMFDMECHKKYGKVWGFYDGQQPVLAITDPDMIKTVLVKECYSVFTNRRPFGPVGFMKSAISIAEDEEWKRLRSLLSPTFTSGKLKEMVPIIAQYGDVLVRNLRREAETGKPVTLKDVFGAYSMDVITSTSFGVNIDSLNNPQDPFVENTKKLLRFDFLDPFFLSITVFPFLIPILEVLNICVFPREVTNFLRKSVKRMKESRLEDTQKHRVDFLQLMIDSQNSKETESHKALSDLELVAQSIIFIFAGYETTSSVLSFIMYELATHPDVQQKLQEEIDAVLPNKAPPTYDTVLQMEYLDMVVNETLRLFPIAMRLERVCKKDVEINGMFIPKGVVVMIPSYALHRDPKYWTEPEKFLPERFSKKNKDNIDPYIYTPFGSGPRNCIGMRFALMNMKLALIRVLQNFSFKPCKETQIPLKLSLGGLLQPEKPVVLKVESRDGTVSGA
# Procedure: (§1) Assessment of certain in vitro ADME (absorption, distribution, metabolism, and excretion) parameters for Compound I was conducted by BioFocus (Saffron Walden, UK). The results reveal that Compound I is cleared rapidly by human hepatocytes and that it has a reduced liability for time-dependent cytochrome P450 inhibition.
# [4] = target: CYP2C9 (Homo sapiens (Human), UniProt P11712); assay: CYP2C9 inhibition with and without preincubation; format: in vitro ADME; conditions: for inhibition at 5 μM: human, 5 μM (precipitation at 15 μM), read-out: % Inh, inhibition at 5 μM reported instead
# Sequence of CYP2C9 (P11712 whole entry): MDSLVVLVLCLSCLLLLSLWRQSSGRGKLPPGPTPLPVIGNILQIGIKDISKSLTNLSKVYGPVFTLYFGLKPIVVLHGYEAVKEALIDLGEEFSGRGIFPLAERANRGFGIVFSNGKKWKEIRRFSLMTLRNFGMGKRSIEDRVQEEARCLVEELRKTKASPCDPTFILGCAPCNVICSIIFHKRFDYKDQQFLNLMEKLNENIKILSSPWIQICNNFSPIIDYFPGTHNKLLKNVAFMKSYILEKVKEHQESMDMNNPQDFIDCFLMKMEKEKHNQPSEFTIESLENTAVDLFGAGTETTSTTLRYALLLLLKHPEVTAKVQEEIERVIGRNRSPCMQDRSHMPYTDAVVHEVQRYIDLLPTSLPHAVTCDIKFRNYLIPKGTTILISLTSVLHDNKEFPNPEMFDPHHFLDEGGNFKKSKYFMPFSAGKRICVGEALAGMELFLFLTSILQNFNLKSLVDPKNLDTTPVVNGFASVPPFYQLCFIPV
# Procedure: as §1
# [5] = Hydrolytic stability study; format: physicochemical; conditions: DMSO and water (3:1), 1 mg/mL
# Procedure: Chemical stability of Compound I was assessed in a mixture of DMSO and water (3:1) at a test compound concentration of 1 mg/mL
# Sample Preparation • A 1.0 mg sample of test compound was dissolved in 750 μL of DMSO. Water (250 μL) was added slowly, ensuring no precipitation occurred.
# Recording Stability • A 50 μL aliquot of the test solution was removed and analysed in duplicate by 5 μL HPLC injections. The peak area for the test compound was recorded following manual integration of the corresponding UV trace. • The test solution was heated to 60° C., with stirring, and 50 μL aliquots removed for HPLC analysis at 5 and 24 h timepoints.
structure (smiles),measurement,setting,value
"COCC(=O)Nc1cc(Oc2ccc(NC(=O)Nc3cc(C(C)(C)C)nn3-c3ccc(C)cc3)c3ccccc23)ccn1 [Reference Compound, N-(4-(4-(3-(3-tert-butyl-1-p-tolyl-1H-pyrazol-5-yl)ureido)naphthalen-1-yloxy)pyridin-2-yl)-2-methoxyacetamide, reference compound]","number of individual kinase hits, S(1)",[1]; 50 nM,7
same,"number of individual kinase hits, S(10)",[1]; 50 nM,32
same,"number of individual kinase hits, S(35)",[1]; 50 nM,67
same,"number of individual kinase hits, S(1)",[1]; 500 nM,45
same,"number of individual kinase hits, S(10)",[1]; 500 nM,105
same,"number of individual kinase hits, S(35)",[1]; 500 nM,143
same,% β-catenin induction,[2],100%
"C#CC(C)(C)c1cc(NC(=O)Nc2ccc(Oc3ccnc(Nc4cc(C)c5[nH]ncc5c4)n3)c3ccccc23)n(-c2ccc(C)cc2)n1 [Ref Cpd A, 1-(4-((2-((7-methyl-1H-indazol-5-yl)amino)pyrimidin-4-yl)oxy)-naphthalen-1-yl)-3-(3-(2-methylbut-3-yn-2-yl)-1-(p-tolyl)-1H-pyrazol-5-yl)urea, reference compound]",IC50,"[3]; CYP3A4, 0 min preincubation",> 15 µM
same,IC50,"[3]; CYP3A4, 30 min preincubation",0.4 µM
same,inhibition at 15 µM,"[3]; CYP3A4, 0 min preincubation",41%
same,inhibition at 15 µM,"[3]; CYP3A4, 30 min preincubation",92%
same,IC50,"[4]; CYP2C9, 0 min preincubation",> 5 µM
same,IC50,"[4]; CYP2C9, 30 min preincubation",1.4 µM
same,inhibition at 5 μM,"[4]; CYP2C9, 0 min preincubation",31%
same,inhibition at 5 μM,"[4]; CYP2C9, 30 min preincubation",66%
"C#Cc1cc(Nc2nccc(Oc3ccc(NC(=O)Nc4cc(C(C)C)nn4-c4ccc(C)cc4)c4ccccc34)n2)cc(C(=O)NCCN2CCOCC2)c1 [Reference Compound B, 3-ethynyl-5-((4-((4-(3-(3-isopropyl-1-(p-toly)-1H-pyrazol-5-yl)ureido)naphthalen-1-yl)oxy)pyrimidin-2-yl)amino)-N-(2-morpholinoethyl)benzamide, reference compound]",% Parent Remaining,[5]; 0 min,100%
same,% Parent Remaining,"[5]; 60° C., 300 min",82%
same,% Parent Remaining,"[5]; 60° C., 1440 min",36%
